Legend:
Assay type in all cases: biochemical
[1] = biological target: T1, hCA I (Homo sapiens, UniProt P00915); assay: stopped-flow CO2 hydrase assay, hCA I; details: recombinant enzyme, mean from 3 different assays, errors ± 5–10%
T1 construct: made in house
Protocol: (§1) An Applied Photophysics stopped-flow instrument has been used for assaying the CA-catalysed CO2 hydration activity. Phenol red (at a concentration of 0.2 mM) has been used as indicator, working at the absorbance maximum of 557 nm, with 20 mM Hepes (pH 7.5) as buffer, and 20 mM Na2SO4 (for maintaining constant the ionic strength), following the initial rates of the CA-catalysed CO2 hydration reaction for a period of 10–100 s. CO2 concentrations ranged from 1.7 to 17 mM for the determining inhibition constants. […] Uncatalyzed rates were determined in the same manner and subtracted from the total observed rates. Stock solutions of inhibitor (0.1 mM) were prepared in buffer with a maximum 3% DMSO, and dilutions up to 0.01 nM were done with the assay buffer. Inhibitor and enzyme solutions were preincubated for 15 min at room temperature prior to assay, in order to allow for the formation of the E–I complex. The inhibition constants were obtained by nonlinear least-squares methods using PRISM 3 and the Cheng-Prusoff equation, as reported earlier, and represent the mean from at least three different determinations. All CA isoforms were recombinant ones obtained in-house as reported earlier.
(§2) AAZ 1 was used as the standard drug in the assay.

[2] = biological target: T2, hCA II (Homo sapiens, UniProt P00918); assay: stopped-flow CO2 hydrase assay, hCA II; details: recombinant enzyme, mean from 3 different assays, errors ± 5–10%
T2 construct: made in house
Protocol: as §1, §2

[3] = biological target: T3, hCA IX (Homo sapiens, UniProt Q16790); assay: stopped-flow CO2 hydrase assay, hCA IX; details: for Ki: recombinant enzyme, stopped-flow CO2 hydrase assay, mean from 3 different assays, errors ± 5–10%; for SR IX/II (Selectivity Ratio): selectivity for inhibiting hCA IX over hCA II (values equal Ki hCA II / Ki hCA IX)
T3 construct: made in house
Protocol: as §1, §2

[4] = biological target: T4, hCA XII (Homo sapiens, UniProt O43570); assay: stopped-flow CO2 hydrase assay, hCA XII; details: for Ki: recombinant enzyme, stopped-flow CO2 hydrase assay, mean from 3 different assays, errors ± 5–10%; for SR XII/II (Selectivity Ratio): selectivity for inhibiting hCA XII over hCA II (values equal Ki hCA II / Ki hCA XII)
T4 construct: made in house
Protocol: as §1, §2

T1 sequence (P00915 whole entry): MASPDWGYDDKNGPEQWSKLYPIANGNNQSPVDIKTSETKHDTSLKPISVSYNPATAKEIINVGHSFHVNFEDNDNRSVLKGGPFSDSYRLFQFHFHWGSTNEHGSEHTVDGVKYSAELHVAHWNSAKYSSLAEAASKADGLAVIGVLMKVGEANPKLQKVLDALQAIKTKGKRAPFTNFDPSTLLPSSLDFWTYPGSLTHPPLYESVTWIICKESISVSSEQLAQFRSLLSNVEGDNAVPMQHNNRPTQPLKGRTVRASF
T4 sequence (O43570 25-354): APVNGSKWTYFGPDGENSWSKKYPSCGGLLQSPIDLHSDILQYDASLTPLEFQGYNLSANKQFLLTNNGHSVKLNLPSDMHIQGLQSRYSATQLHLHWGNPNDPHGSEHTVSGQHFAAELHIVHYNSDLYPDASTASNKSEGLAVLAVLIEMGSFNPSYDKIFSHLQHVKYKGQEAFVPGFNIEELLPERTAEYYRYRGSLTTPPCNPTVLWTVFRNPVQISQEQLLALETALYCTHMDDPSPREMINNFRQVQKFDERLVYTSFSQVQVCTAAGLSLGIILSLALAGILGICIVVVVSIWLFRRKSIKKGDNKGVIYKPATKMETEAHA

SMILES	Ki [1] [nM]	Ki [2] [nM]	Ki [3] [nM]	SR IX/II (Selectivity Ratio) [3]	Ki [4] [nM]	SR XII/II (Selectivity Ratio) [4]
NS(=O)(=O)c1ccc2nc(-c3ccc(O)cc3)[nH]c2c1 [Compound 6, 2-(4-Hydroxyphenyl)-1H-benzo[d]imidazole-6-sulfonamide]	238	101	17.4	5.8	44.1	2.3
NS(=O)(=O)c1ccc2nc(Cc3ccc(O)cc3)[nH]c2c1 [Compound 7, 2-(4-Hydroxybenzyl)-1H-benzo[d]imidazole-6-sulfonamide]	442	91.9	73.9	1.2	63.8	1.4
NS(=O)(=O)c1ccc2nc(CCc3ccc(O)cc3)[nH]c2c1 [Compound 8, 2-(4-Hydroxyphenethyl)-1H-benzo[d]imidazole-6-sulfonamide]	214	47.8	14.4	3.3	9.8	4.9
NS(=O)(=O)c1ccc2nc(-c3ccccc3)[nH]c2c1 [Compound 9, 2-Phenyl-1H-benzo[d]imidazole-6-sulfonamide]	92.8	104	47.6	2.2	78.9	1.3
COC(=O)c1ccc(-c2nc3ccc(S(N)(=O)=O)cc3[nH]2)cc1 [Compound 10, Methyl 4-(6-sulfamoyl-1H-benzo[d]imidazol-2-yl)benzoate]	208	185	29.6	6.3	72.2	2.6
NS(=O)(=O)c1ccc2nc(-c3ccc(C(=O)O)cc3)[nH]c2c1 [Compound 11, 4-(6-Sulfamoyl-1H-benzo[d]imidazol-2-yl)benzoic acid]	97.6	133	64.3	2.1	57	2.3
NS(=O)(=O)c1ccc2nc(-c3ccc(O)c(O)c3)[nH]c2c1 [Compound 12, 2-(3,4-Dihydroxyphenyl)-1H-benzo[d]imidazole-6-sulfonamide]	169	79	41.6	1.9	8.5	
COC(=O)c1cc(-c2nc3ccc(S(N)(=O)=O)cc3[nH]2)ccc1O [Compound 13, Methyl 2-hydroxy-5-(6-sulfamoyl-1H-benzo[d]imidazol-2-yl)benzoate]	126	50.8	2.2	23.1	22.3	2.3
NS(=O)(=O)c1ccc2nc(-c3ccc(O)c(C(=O)O)c3)[nH]c2c1 [Compound 14, 2-hydroxy-5-(6-sulfamoyl-1H-benzo[d]imidazol-2-yl)benzoic acid]	95.6	68.6	34.2	2.0	3.8	18.1
CCNS(=O)(=O)c1ccc2nc(-c3ccc(O)c(C(=O)OC)c3)[nH]c2c1 [Compound 15, Methyl 5-(6-(N-ethylsulfamoyl)-1H-benzo[d]imidazol-2-yl)-2-hydroxybenzoate]	> 10000	8920	390		813	
CCNS(=O)(=O)c1ccc2nc(-c3ccc(O)c(C(=O)O)c3)[nH]c2c1 [Compound 16, 5-(6-(N-ethylsulfamoyl)-1H-benzo[d]imidazol-2-yl)-2-hydroxybenzoic acid]	> 10000	7580	665		464	
COC(=O)c1cc(CCc2nc3ccc(S(N)(=O)=O)cc3[nH]2)ccc1O [Compound 17, Methyl 2-hydroxy-5-(2-(6-sulfamoyl-1H-benzo[d]imidazol-2-yl)ethyl)benzoate]	427	52.7	5.9	8.9	7.9	6.7
NS(=O)(=O)c1ccc2nc(CCc3ccc(O)c(C(=O)O)c3)[nH]c2c1 [Compound 18, 2-Hydroxy-5-(2-(6-sulfamoyl-1H-benzo[d]imidazol-2-yl)ethyl)benzoic acid]	441	24.8	7.6	3.3	4.2	5.9
NC(=O)c1ccc2nc(-c3ccc(O)c(C(=O)O)c3)[nH]c2c1 [Compound 19, 5-(6-Carbamoyl-1H-benzo[d]imidazol-2-yl)-2-hydroxybenzoic acid]	> 10000	> 10000	> 10000		> 10000	

— paper PMC6758606, “Novel 2-substituted-benzimidazole-6-sulfonamides as carbonic anhydrase inhibitors: synthesis, biological evaluation against isoforms I, II, IX and XII and molecular docking studies” (Journal of Enzyme Inhibition and Medicinal Chemistry, 2019)
